Data published in ChEMBL document CHEMBL3132769, “Fragment growing to retain or alter the selectivity of anchored kinase hinge-binding fragments” (Medchemcomm, 2014).

Legend:
[1] = molecular target: Hepatocyte growth factor receptor (Homo sapiens) (UniProt P08581); experiment: Inhibition of human MET cytoplasmic domain expressed in baculovirus assessed as substrate phosphorylation using fluorescence-labelled peptides as substrate at 95 uM after 90 mins by microfluidic peptide phosphorylation assay
[2] = molecular target: Tyrosine-protein kinase BTK (Homo sapiens) (UniProt Q06187); experiment: Inhibition of human full length BTK expressed in baculovirus assessed as substrate phosphorylation using fluorescence-labelled peptides as substrate at 0.2 uM after 90 mins by microfluidic peptide phosphorylation assay
[3] = molecular target: MAP kinase-activated protein kinase 3 (Homo sapiens) (UniProt Q16644); experiment: Inhibition of human full length MAPKAPK3 expressed in Escherichia coli cell assessed as substrate phosphorylation using fluorescence-labelled peptides as substrate at 8 uM after 90 mins by microfluidic peptide phosphorylation assay
[4] = molecular target: T1, Serine/threonine-protein kinase BRSK1 (Homo sapiens) (UniProt Q8TDC3); experiment: Inhibition of human full length BRSK1 expressed in baculovirus assessed as substrate phosphorylation using fluorescence-labelled peptides as substrate at 2 uM after 90 mins by microfluidic peptide phosphorylation assay
T1 sequence (whole entry): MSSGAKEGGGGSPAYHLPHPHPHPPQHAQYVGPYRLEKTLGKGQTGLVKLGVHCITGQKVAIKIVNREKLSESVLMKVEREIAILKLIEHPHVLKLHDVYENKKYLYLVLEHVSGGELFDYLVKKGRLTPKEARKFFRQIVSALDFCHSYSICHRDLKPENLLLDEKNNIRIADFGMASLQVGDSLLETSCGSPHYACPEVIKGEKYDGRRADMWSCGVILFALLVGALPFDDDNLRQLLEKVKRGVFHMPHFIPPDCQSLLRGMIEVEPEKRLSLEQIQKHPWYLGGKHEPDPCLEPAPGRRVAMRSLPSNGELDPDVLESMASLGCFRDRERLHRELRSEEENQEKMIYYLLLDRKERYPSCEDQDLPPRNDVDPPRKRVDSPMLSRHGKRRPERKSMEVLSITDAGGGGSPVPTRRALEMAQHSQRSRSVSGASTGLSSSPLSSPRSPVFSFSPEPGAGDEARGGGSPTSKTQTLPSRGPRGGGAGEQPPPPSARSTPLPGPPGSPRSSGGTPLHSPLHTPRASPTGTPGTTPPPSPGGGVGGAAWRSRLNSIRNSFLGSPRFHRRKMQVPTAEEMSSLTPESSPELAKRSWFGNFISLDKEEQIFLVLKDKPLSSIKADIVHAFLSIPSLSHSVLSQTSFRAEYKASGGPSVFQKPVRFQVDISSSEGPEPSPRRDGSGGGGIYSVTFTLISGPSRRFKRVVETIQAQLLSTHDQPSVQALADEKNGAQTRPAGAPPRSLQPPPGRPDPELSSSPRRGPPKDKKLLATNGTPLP

[5] = molecular target: Ribosomal protein S6 kinase alpha-2 (Homo sapiens) (UniProt Q15349); experiment: Inhibition of human full length RSK3 expressed in baculovirus assessed as substrate phosphorylation using fluorescence-labelled peptides as substrate at 2 uM after 90 mins by microfluidic peptide phosphorylation assay
[6] = molecular target: Hepatocyte growth factor receptor (Homo sapiens) (UniProt P08581); experiment: Inhibition of human MET cytoplasmic domain expressed in baculovirus assessed as substrate phosphorylation using fluorescence-labelled peptides as substrate at 1000 uM after 90 mins by microfluidic peptide phosphorylation assay
[7] = molecular target: T1, Serine/threonine-protein kinase BRSK1 (Homo sapiens); experiment: Inhibition of human full length BRSK1 expressed in baculovirus assessed as substrate phosphorylation using fluorescence-labelled peptides as substrate at 0.06 uM after 90 mins by microfluidic peptide phosphorylation assay
[8] = molecular target: Glycogen synthase kinase-3 beta (Homo sapiens) (UniProt P49841); conditions: 0.1 uM
Description: Inhibition of human full length GSK-3 beta expressed in baculovirus assessed as substrate phosphorylation using fluorescence-labelled peptides as substrate at 0.1 uM after 90 mins by microfluidic peptide phosphorylation assay

[9] = molecular target: T2, Serine/threonine-protein kinase D3 (Homo sapiens) (UniProt O94806); conditions: 0.1 uM
T2 sequence (whole entry): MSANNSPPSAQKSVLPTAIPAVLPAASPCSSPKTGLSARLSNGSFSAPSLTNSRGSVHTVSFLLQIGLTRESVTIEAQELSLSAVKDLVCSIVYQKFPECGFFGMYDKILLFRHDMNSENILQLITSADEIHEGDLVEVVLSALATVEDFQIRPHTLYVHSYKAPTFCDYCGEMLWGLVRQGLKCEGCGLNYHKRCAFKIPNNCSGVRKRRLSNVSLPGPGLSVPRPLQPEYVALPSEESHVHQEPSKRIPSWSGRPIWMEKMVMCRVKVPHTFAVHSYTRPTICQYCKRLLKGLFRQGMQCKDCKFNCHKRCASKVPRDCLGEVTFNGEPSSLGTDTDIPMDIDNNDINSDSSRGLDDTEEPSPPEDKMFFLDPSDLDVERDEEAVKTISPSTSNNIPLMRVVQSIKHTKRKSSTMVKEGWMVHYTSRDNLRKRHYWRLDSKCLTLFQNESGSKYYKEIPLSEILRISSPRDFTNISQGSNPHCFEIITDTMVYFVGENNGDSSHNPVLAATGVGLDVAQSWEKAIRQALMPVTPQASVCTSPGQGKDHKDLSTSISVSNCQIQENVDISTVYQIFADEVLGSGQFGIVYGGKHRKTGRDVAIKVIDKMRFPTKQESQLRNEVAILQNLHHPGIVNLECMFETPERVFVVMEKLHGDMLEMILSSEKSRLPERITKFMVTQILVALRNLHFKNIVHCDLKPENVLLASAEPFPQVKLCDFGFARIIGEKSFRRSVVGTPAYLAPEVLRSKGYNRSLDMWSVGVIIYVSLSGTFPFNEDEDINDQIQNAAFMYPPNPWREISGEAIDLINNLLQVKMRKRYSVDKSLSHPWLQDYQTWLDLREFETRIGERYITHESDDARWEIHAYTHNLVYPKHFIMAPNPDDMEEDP
Description: Inhibition of human full length PKD3 expressed in baculovirus assessed as substrate phosphorylation using fluorescence-labelled peptides as substrate at 0.1 uM after 90 mins by microfluidic peptide phosphorylation assay

[10] = molecular target: Ribosomal protein S6 kinase alpha-3 (Homo sapiens) (UniProt P51812); experiment: Inhibition of human full length RSK2 expressed in baculovirus assessed as substrate phosphorylation using fluorescence-labelled peptides as substrate at 420 uM after 90 mins by microfluidic peptide phosphorylation assay
Sequence of Ribosomal protein S6 kinase alpha-3 (Homo sapiens) (P51812 whole entry): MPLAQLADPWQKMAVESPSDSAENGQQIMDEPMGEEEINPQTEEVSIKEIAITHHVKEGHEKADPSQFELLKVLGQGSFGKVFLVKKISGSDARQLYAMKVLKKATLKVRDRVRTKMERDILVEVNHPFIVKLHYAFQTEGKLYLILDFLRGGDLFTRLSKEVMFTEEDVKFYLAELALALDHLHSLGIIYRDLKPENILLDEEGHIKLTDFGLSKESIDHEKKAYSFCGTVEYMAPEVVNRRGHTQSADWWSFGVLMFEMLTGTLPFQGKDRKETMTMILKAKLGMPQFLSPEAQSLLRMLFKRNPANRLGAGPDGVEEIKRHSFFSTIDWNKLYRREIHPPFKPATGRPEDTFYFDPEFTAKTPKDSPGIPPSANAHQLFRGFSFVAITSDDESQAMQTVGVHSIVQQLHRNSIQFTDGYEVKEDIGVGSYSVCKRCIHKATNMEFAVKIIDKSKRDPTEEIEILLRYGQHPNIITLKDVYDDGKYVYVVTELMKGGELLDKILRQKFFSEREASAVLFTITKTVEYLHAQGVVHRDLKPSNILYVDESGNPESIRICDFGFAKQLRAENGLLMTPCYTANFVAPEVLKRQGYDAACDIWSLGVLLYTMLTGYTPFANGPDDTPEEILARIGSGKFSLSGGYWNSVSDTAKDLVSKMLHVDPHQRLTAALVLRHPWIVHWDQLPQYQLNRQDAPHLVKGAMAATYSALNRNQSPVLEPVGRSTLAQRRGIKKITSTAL

Sequence of Hepatocyte growth factor receptor (Homo sapiens) (P08581 whole entry, the tested form may be a part): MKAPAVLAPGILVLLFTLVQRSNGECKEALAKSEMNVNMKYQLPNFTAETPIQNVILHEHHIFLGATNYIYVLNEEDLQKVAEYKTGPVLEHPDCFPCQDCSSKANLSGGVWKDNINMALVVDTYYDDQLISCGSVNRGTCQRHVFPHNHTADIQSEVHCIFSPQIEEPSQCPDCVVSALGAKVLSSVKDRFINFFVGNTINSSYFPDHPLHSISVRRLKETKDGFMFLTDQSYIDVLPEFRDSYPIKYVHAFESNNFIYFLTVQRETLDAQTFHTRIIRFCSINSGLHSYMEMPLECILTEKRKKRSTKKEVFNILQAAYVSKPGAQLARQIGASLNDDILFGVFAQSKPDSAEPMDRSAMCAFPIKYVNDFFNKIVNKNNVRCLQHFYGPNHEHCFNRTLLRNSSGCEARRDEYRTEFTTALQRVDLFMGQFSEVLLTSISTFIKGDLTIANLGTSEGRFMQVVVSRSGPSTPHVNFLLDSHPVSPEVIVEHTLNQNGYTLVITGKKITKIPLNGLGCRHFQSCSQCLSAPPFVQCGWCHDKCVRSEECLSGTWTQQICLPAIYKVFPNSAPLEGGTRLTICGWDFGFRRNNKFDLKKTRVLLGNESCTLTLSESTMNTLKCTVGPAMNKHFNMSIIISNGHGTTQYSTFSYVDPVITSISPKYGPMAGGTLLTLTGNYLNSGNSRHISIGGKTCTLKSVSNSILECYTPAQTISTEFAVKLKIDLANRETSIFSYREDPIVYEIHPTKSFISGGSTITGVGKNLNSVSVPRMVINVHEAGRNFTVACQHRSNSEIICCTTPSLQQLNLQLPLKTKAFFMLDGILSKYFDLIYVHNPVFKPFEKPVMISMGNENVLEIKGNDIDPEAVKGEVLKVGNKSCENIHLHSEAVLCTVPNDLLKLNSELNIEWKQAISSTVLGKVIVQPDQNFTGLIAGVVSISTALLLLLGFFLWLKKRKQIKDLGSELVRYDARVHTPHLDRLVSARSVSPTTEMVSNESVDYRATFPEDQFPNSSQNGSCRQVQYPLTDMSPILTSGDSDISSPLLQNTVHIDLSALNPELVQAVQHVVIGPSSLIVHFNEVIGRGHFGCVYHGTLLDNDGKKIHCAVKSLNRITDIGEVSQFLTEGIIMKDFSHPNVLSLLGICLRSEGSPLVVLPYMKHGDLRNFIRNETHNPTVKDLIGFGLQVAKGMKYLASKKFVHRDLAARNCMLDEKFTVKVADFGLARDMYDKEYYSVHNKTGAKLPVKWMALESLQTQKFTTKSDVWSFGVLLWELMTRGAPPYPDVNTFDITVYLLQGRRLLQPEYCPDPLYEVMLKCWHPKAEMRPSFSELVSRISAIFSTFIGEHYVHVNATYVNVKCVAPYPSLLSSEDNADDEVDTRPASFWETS
Sequence of Glycogen synthase kinase-3 beta (Homo sapiens) (P49841 whole entry, looked up): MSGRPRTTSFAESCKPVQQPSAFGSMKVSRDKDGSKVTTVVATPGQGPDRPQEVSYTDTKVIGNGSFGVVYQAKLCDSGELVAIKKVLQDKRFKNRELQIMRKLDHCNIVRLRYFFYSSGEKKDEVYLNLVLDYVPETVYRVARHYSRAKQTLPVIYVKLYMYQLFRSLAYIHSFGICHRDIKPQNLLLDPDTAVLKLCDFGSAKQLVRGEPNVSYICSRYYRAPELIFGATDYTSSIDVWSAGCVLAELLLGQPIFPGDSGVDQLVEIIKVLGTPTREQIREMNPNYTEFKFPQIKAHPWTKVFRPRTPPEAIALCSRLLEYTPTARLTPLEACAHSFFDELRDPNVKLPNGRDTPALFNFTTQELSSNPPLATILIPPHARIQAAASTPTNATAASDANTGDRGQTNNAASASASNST
Sequence of MAP kinase-activated protein kinase 3 (Homo sapiens) (Q16644 whole entry, looked up): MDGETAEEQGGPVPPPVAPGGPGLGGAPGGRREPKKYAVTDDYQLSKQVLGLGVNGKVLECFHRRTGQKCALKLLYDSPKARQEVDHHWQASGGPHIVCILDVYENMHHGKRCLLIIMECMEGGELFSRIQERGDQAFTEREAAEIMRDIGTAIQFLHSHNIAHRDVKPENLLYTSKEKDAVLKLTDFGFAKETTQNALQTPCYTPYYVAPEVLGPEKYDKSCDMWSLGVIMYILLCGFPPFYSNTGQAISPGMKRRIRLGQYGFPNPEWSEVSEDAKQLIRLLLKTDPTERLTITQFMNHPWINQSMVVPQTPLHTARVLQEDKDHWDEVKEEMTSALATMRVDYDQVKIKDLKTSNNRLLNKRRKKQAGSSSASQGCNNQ
Sequence of Tyrosine-protein kinase BTK (Homo sapiens) (Q06187 whole entry): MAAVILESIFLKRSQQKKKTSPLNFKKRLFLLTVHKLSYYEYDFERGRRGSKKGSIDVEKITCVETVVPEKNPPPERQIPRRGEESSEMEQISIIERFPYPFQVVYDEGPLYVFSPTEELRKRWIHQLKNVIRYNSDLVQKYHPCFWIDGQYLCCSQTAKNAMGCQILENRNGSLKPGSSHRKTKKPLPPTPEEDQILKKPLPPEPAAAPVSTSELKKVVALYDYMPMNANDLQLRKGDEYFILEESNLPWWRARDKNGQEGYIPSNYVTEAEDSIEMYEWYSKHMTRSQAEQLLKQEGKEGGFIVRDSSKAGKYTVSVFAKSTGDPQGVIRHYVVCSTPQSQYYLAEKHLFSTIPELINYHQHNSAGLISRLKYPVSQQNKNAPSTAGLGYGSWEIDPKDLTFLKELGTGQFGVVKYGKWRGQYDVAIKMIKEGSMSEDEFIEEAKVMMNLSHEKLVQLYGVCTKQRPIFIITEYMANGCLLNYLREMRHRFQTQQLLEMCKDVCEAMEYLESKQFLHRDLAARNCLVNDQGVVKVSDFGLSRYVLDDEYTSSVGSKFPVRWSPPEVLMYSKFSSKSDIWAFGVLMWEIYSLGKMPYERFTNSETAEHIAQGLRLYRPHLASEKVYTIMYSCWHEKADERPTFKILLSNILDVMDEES
Sequence of Ribosomal protein S6 kinase alpha-2 (Homo sapiens) (Q15349 whole entry, the tested form may be a part): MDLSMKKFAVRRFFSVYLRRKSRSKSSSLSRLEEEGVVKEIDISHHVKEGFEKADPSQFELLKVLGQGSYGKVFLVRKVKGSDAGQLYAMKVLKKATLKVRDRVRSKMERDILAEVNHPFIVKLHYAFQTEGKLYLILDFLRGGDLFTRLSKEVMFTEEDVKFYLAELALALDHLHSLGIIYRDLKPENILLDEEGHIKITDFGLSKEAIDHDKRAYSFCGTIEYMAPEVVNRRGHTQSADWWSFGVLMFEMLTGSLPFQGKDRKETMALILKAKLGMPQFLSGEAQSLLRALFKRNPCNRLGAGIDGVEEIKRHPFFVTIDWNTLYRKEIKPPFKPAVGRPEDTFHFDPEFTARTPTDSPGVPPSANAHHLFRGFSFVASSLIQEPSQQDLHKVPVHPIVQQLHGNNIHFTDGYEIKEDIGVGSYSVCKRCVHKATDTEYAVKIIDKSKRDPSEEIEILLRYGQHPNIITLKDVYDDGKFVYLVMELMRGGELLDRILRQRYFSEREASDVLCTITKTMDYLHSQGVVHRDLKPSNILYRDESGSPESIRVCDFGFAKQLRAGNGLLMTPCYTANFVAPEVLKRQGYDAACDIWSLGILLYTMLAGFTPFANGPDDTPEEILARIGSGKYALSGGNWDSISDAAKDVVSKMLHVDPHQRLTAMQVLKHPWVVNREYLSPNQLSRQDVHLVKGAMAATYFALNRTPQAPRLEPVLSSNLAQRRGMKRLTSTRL

Compound: NCCc1ccc(-c2ncnc3[nH]cnc23)cc1
- inhibition [1]: 5.5%

Compound: Clc1ccc(C2(c3ccc(-c4ncnc5[nH]cnc45)cc3)CCNCC2)cc1
- inhibition [2]: 0%

Compound: NCC1CCN(c2ncnc3[nH]ccc23)CC1
- inhibition [3]: 81.5%

Compound: NC1CCN(c2ncnc3[nH]ccc23)CC1
- inhibition [4]: 14.5%
- inhibition [5]: 0%

Compound: c1cnc2[nH]ccc2c1
- inhibition [6]: 55%

Compound: NC1(Cc2ccc(Cl)cc2)CCN(c2ncnc3[nH]ccc23)CC1
- inhibition [7]: 0%

Compound: C[C@H](CN(C)C)Oc1nc(Nc2cc3cccc(Cl)c3cn2)cnc1C#N
- inhibition [8]: 0%
- inhibition [9]: 0%

Compound: c1nc(N2CCOCC2)c2nc[nH]c2n1
- inhibition [10]: 95%
